Earlier results as cited in paper PMC2970821 (Clinical Proteomics, 2010).
Ends that are not written are not given here.

Conditions: apparently generating ITIH4-25, ref [26]

For RPGVLSSRQLGLPGPPDVPDHAAYHPF [ITIH4-27], the “Susceptibility to degradation of the synthetic peptide in plasma and serum” value is listed as “highest susceptibility to degradation”.
